Measurements taken from patent publication US8586588B2, “Aryl pyridazinone derivatives and their use as H3 receptor ligands” (Cephalon, Inc., priority 2006, dated 2013).
pKi: −log10 of the molar value. Where “and” joins values, the source holds several entries; their conditions need not be identical. Equal entries are not always repeated.

Columns and labels:
[1] = target: T1, rat histamine H3 receptor (Rattus norvegicus, UniProt Q9QYN8); assay: Rat H3 radioligand binding ([3H]-N-alpha-methylhistamine, CHO-A3 cell membranes, SPA); conditions: Table B, binding constant as letter class; read-out: rat H3 Ki
T1 construct: encoding the entire 445-amino-acid rat histamine H3 receptor; expressed in transfected cells
Summary of the method: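 Scintillation proximity displacement of about 1 nM [3H]-N-alpha-methylhistamine, test compound 0.01 nM-30 μM, 4 h, room temperature, in the dark. Receptor source: rat H3 stably transfected into CHO-A3 cells, 10 μg membrane protein, Tris-HCl pH 7.4/MgCl2/BSA buffer. Nonspecific binding defined by 10 μM clobenpropit.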

human H3 receptor = target: T2, human H3 receptor (Homo sapiens, UniProt Q9Y5N1); assay: Human H3 radioligand binding ([3H]-N-alpha-methylhistamine, CHO cell membranes, SPA); conditions: Table B, binding constant as letter class
T2 construct: expressed in transfected cells
Summary of the method: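 Scintillation proximity format: bead-proximal [3H]-N-alpha-methylhistamine (approximately 1 nM final) bound to human H3 receptor in CHO membranes was counted after 4 h at room temperature, light-protected. Buffer was pH 7.4 Tris/MgCl2/BSA; test compounds spanned 0.01 nM-30 μM; 10 μM clobenpropit set non-specific binding.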

T1 sequence (Q9QYN8 whole entry): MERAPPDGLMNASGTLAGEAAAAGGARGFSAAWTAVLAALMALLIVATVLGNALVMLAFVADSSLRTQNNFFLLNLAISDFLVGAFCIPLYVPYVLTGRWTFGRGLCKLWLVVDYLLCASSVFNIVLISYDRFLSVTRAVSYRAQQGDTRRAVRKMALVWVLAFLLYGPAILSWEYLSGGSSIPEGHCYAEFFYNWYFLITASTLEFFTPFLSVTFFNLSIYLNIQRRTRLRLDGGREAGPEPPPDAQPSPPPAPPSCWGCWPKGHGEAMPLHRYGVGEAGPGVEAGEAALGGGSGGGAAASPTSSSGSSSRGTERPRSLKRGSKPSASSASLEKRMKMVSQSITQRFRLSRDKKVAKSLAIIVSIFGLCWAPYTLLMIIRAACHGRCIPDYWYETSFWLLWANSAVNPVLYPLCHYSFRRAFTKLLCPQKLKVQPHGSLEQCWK
T2 sequence (Q9Y5N1 whole entry): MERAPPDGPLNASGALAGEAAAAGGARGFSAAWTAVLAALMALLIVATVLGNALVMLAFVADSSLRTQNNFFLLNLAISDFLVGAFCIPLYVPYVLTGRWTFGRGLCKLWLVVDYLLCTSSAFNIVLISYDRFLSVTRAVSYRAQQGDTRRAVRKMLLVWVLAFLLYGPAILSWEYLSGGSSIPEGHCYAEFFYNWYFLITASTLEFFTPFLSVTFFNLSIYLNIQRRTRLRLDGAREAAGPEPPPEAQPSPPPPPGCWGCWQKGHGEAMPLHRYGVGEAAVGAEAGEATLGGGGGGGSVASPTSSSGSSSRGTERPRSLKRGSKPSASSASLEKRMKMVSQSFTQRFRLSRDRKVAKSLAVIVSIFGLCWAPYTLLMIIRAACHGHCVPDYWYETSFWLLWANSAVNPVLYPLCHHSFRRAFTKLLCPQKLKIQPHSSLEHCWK

Compound | pKi [1] | pKi (human H3 receptor)
Cn1ncc(-c2ccc(OCCCN3CCCCC3)cc2)cc1=O [Example 92, 2-Methyl-5-[4-(3-piperidin-1-yl-propoxy)-phenyl]-2H-pyridazin-3-one] | 7.00 to 10.00 | 7.00 to 10.00
Cn1ncc(-c2ccc(OCCCN3CCCCCC3)cc2)cc1=O [Example 93, 5-[4-(3-Azepan-1-yl-propoxy)-phenyl]-2-methyl-2H-pyridazin-3-one] | 7.00 to 10.00 | 7.00 to 10.00
O=c1cc(-c2ccc(OCCCN3CCCCC3)cc2)cnn1-c1ccccn1 [Example 95, 5-[4-(3-Piperidin-1-yl-propoxy)-phenyl]-2-pyridin-2-yl-2H-pyridazin-3-one] | 7.00 to 10.00 | 7.00 to 10.00
O=c1cc(-c2ccc(OCCCN3CCCCCC3)cc2)cnn1-c1ccccn1 [Example 96, 5-[4-(3-Azepan-1-yl-propoxy)-phenyl]-2-pyridin-2-yl-2H-pyridazin-3-one] | 7.00 to 10.00 | 7.00 to 10.00
Cc1cccnc1-n1ncc(-c2ccc(OCCCN3CCC[C@H]3C)cc2)cc1=O [Example 99, 2-(3-Methyl-pyridin-2-yl)-5-{4-[3-((R)-2-methylpyrrolidin-1-yl)-propoxy]-phenyl}-2H-pyridazin-3-one] | 7.00 to 10.00 | 7.00 to 10.00
Cc1nn(-c2ccccn2)c(=O)cc1-c1ccc(OCCCN2CCC[C@H]2C)cc1 [Example 100, 6-Methyl-5-{4-[3-((R)-2-methyl-pyrrolidin-1-yl)-propoxy]-phenyl}-2-pyridin-2-yl-2H-pyridazin-3-one] | 7.00 to 10.00 | 7.00 to 10.00
Cc1cccnc1-n1nc(C)c(-c2ccc(OCCCN3CCC[C@H]3C)cc2)cc1=O [Example 101, 6-Methyl-2-(3-methyl-pyridin-2-yl)-5-{4-[3-((R)-2-methyl-pyrrolidin-1-yl)-propoxy]-phenyl}-2H-pyridazin-3-one] | 7.00 to 10.00 | 7.00 to 10.00
Cc1n[nH]c(=O)cc1-c1ccc(OC2CCN(C3CCC3)CC2)cc1 [Example 103, 5-[4-(1-Cyclobutyl-piperidin-4-yloxy)-phenyl]-6-methyl-2H-pyridazin-3-one] | 7.00 to 10.00 | 7.00 to 10.00
Cc1nn(-c2ccccn2)c(=O)cc1-c1ccc(OC2CCN(C3CCC3)CC2)cc1 [Example 104, 5-[4-(1-Cyclobutyl-piperidin-4-yloxy)-phenyl]-6-methyl-2-pyridin-2-yl-2H-pyridazin-3-one] | 7.00 to 10.00 | 7.00 to 10.00
O=c1cc(-c2ccc(OC3CCNCC3)cc2)cn[nH]1 [Example 105, 5-[4-(Piperidin-4-yloxy)-phenyl]-2H-pyridazin-3-one] | < 6.00 | < 6.00
O=c1cc(-c2ccc(OC3CCN(C4CCC4)CC3)cc2)cn[nH]1 [Example 106, 5-[4-(1-Cyclobutyl-piperidin-4-yloxy)-phenyl]-2H-pyridazin-3-one] | 7.00 to 10.00 | 7.00 to 10.00
Cc1nn(-c2ccsc2)c(=O)cc1-c1ccc(OC2CCN(C3CCC3)CC2)cc1 [Example 107, 5-[4-(1-Cyclobutyl-piperidin-4-yloxy)-phenyl]-6-methyl-2-thiophen-3-yl-2H-pyridazin-3-one] | 7.00 to 10.00 | 7.00 to 10.00
Cc1nn(-c2ccsc2)c(=O)cc1-c1ccc(OCCCN2CCC[C@H]2C)cc1 [Example 108, 6-Methyl-5-{4-[3-((R)-2-methyl-pyrrolidin-1-yl)-propoxy]-phenyl}-2-thiophen-3-yl-2H-pyridazin-3-one] | 7.00 to 10.00 | 7.00 to 10.00
C[C@@H]1CCCN1CCCOc1ccc(C2=NNC(=O)CC2c2ccccn2)cc1 (stereo partly drawn) [Example 111, 6-{4-[3-((R)-2-Methyl-pyrrolidin-1-yl)-propoxy]-phenyl}-5-pyridin-2-yl-4,5-dihydro-2H-pyridazin-3-one] | 7.00 to 10.00 | 7.00 to 10.00
O=C1CC(c2ccccn2)C(c2ccc(OC3CCNCC3)cc2)=NN1 (stereo not drawn) [Example 113, 6-[4-(Piperidin-4-yloxy)-phenyl]-5-pyridin-2-yl-4,5-dihydro-2H-pyridazin-3-one] | < 6.00 | < 6.00
CC1CC(c2ccc(OC3CCN(C4CCC4)CC3)cc2)=NNC1=O (stereo not drawn) [Example 116, 6-[4-(1-Cyclobutyl-piperidin-4-yloxy)-phenyl]-4-methyl-4,5-dihydro-2H-pyridazin-3-one] | 7.00 to 10.00 | 7.00 to 10.00
O=c1cc(-c2ccc(OC3CCN(C4CCC4)CC3)nc2)cn[nH]1 [Example 117, 5-[6-(1-Cyclobutyl-piperidin-4-yloxy)-pyridin-3-yl]-2H-pyridazin-3-one] | 7.00 to 10.00 | 7.00 to 10.00
C[C@@H]1CCCN1CCCOc1ccc(-c2ccc(=O)n(CCF)n2)cc1 [Example 118, 2-(2-Fluoro-ethyl)-6-{4-[3-((R)-2-methyl-pyrrolidin-1-yl)-propoxy]-phenyl}-2H-pyridazin-3-one] | 7.00 to 10.00 | 7.00 to 10.00

Compound | pKi [1] | pKi (human H3 receptor)
C[C@@H]1CCCN1CCCOc1ccc(-c2ccc(=O)[nH]n2)cc1F [Example 119, 6-{3-Fluoro-4-[3-((R)-2-methyl-pyrrolidin-1-yl)-propoxy]-phenyl}-2H-pyridazin-3-one] | 7.00 to 10.00 | 7.00 to 10.00
O=c1ccc(-c2ccc(OCCCN3CCCCC3)c(F)c2)n[nH]1 [Example 120, 6-[3-Fluoro-4-(3-piperidin-1-yl-propoxy)-phenyl]-2H-pyridazin-3-one] | 6.30 to 7.00 | 7.00 to 10.00
CC1CC(c2ccc(OCCCN3CCC[C@H]3C)cc2)=NNC1=O (stereo partly drawn) [Example 121, 4-Methyl-6-{4-[3-((R)-2-methyl-pyrrolidin-1-yl)-propoxy]-phenyl}-4,5-dihydro-2H-pyridazin-3-one] | 7.00 to 10.00 | 7.00 to 10.00
Cc1cc(-c2ccc(OCCCN3CCC[C@H]3C)cc2)n[nH]c1=O [Example 122, 4-Methyl-6-{4-[3-((R)-2-methyl-pyrrolidin-1-yl)-propoxy]-phenyl}-2H-pyridazin-3-one] | 7.00 to 10.00 | 7.00 to 10.00
Cc1cc(-c2ccc(OCCCN3CCCCC3)cc2)n[nH]c1=O [Example 123, 4-Methyl-6-[4-(3-piperidin-1-yl-propoxy)-phenyl]-2H-pyridazin-3-one] | 7.00 to 10.00 | 7.00 to 10.00
Cn1nc(-c2ccc(OCCCN3CCC[C@H]3CO)cc2)c2c(c1=O)CCCC2 [Example 124, 4-{4-[3-((S)-2-Hydroxymethyl-pyrrolidin-1-yl)-propoxy]-phenyl}-2-methyl-5,6,7,8-tetrahydro-2H-phthalazin-1-one] | 7.00 to 10.00 | 7.00 to 10.00
C[C@@H]1CCCN1CCCOc1cccc(-c2nn(C)c(=O)c3c2CCC3)c1 [Example 125, 2-Methyl-4-{3-[3-((R)-2-methyl-pyrrolidin-1-yl)-propoxy]-phenyl}-2,5,6,7-tetrahydro-cyclopenta[d]pyridazin-1-one] | 6.00 to 6.30 | 6.30 to 7.00
Cn1nc(-c2cccc(OCCCN3CCCCC3)c2)c2c(c1=O)CCC2 [Example 126, 2-Methyl-4-[3-(3-piperidin-1-yl-propoxy)-phenyl]-2,5,6,7-tetrahydro-cyclopenta[d]pyridazin-1-one] | 6.00 to 6.30 | 6.30 to 7.00
Cn1nc(-c2cccc(OCCCN3CCC[C@H]3CO)c2)c2c(c1=O)CCC2 [Example 127, 4-{3-[3-((S)-2-Hydroxymethyl-pyrrolidin-1-yl)-propoxy]-phenyl}-2-methyl-2,5,6,7-tetrahydro-cyclopenta[d]pyridazin-1-one] | 6.00 to 6.30 | 6.00 to 6.30
CC(C)n1ncc(-c2ccc(OCCCN3CCC[C@H]3C)cc2)cc1=O [Example 128, 2-Isopropyl-5-{4-[3-((R)-2-methyl-pyrrolidin-1-yl)-propoxy]-phenyl}-2H-pyridazin-3-one] | 7.00 to 10.00 | 7.00 to 10.00
C[C@@H]1CCCN1CCCOc1ccc(-c2ccc(=O)n(-c3ncccn3)n2)cc1 [Example 138, 6-{4-[3-((R)-2-Methyl-pyrrolidin-1-yl)-propoxy]-phenyl}-2-pyrimidin-2-yl-2H-pyridazin-3-one] | 7.00 to 10.00 | 7.00 to 10.00
O=c1ccc(-c2ccc(OC3CCN(C4CCCC4)CC3)nc2)n[nH]1 [Example 139, 6-[6-(1-Cyclopentyl-piperidin-4-yloxy)-pyridin-3-yl]-2H-pyridazin-3-one] | 7.00 to 10.00 | 7.00 to 10.00
Cn1nc(-c2ccc(OC3CCN(C4CCCC4)CC3)nc2)ccc1=O [Example 143, 6-[6-(1-Cyclopentyl-piperidin-4-yloxy)-pyridin-3-yl]-2-methyl-2H-pyridazin-3-one] | 6.00 to 6.30 and 7.00 to 10.00 | 7.00 to 10.00
Cn1nc(-c2ccc(OC3CCN(C4CCC4)CC3)nc2)ccc1=O [Example 144, 6-[6-(1-Cyclobutyl-piperidin-4-yloxy)-pyridin-3-yl]-2-methyl-2H-pyridazin-3-one] | 7.00 to 10.00 | 7.00 to 10.00
CC1(C)CC(c2ccc(OC3CCN(C4CCC4)CC3)nc2)=NNC1=O [Example 148, 6-[6-(1-Cyclobutyl-piperidin-4-yloxy)-pyridin-3-yl]-4,4-dimethyl-4,5-dihydro-2H-pyridazin-3-one] | 7.00 to 10.00 | 7.00 to 10.00
O=c1ccc(-c2ccc(OC3CCN(C4CCC4)CC3)nc2)nn1-c1ccccn1 [Example 149, 6-[6-(1-Cyclobutyl-piperidin-4-yloxy)-pyridin-3-yl]-2-pyridin-2-yl-2H-pyridazin-3-one] | 7.00 to 10.00 | 7.00 to 10.00
O=c1ccc(-c2ccc(OC3CCN(C4CCC4)CC3)cc2)nn1-c1ccccn1 [Example 157] | 7.00 to 10.00 | 7.00 to 10.00
O=C1CCC(c2ccc(OC3CCN(C4CCC4)CC3)cc2)=NN1c1ccccn1 [Example 158, 6-[4-(1-Cyclobutyl-piperidin-4-yloxy)phenyl]-2-pyridin-2-yl-4,5-dihydro-2H-pyridazin-3-one] | 7.00 to 10.00 | 7.00 to 10.00
